Assay results as given in patent publication US12721892B2, “Methods and compositions for chimeric antigen receptor targeting cancer cells” (The University of North Carolina at Chapel Hill, priority 2019, dated 2026).
“Also recorded” adds a separate entry of the source.

Tests used:
[1] = test system: CD19+ BV173 tumor cell line; experiment: Co-culture / stimulation with CD19+ BV173 tumor cells; type: cell-based, human
Description: (§1) For activation of CD19-specific CAR-T cells with the anti-idiotype Ab or CD19^+ tumor cells, anti-CAR19 and anti-CD3 Abs were serially diluted 2-fold, and coated on non-tissue culture treated 96-well plates for 16 hours. Plates were washed twice before plating T cells (2.5×10^5 cells/well). Plates were centrifuged at 1,000 g for 5 min, and incubated at 37° C. for 6 hours. Plates were then briefly spun, and 200 μl of the supernatant was collected for ELISA. Cells were collected and stained with anti-CAR19, CD4-PE, CD69-FITC Abs and Zombie Aqua™ dye (Biolegend) at 4° C. for 30 min. Samples were fixed and stored for flow cytometry analysis. For tumor cell-mediated activation, 5×10^4 BV173 tumor cells were seeded in each well of 96-well plates, and T cells were serially diluted and seeded. Six hours later, supernatant was collected for ELISA.
(§2) Cytokines in culture supernatants and plasma were measured using enzyme-linked immunosorbent assay (ELISA) or magnetic luminex assay following manufacturer's instructions (R&D Systems). Data were collected and analyzed using the Lumina-200 System and the Bio-Plex Manager 6.1 software (Bio-Rad).
For co-culture assays, CD19^+ BV173 tumor cells were seeded into 24-well plates with 5×10^5 cells/well and T cells were added at different effector to target (E:T) ratios (E:T=1:1 or 1:5). After 24 hours, supernatant was collected for ELISA. Three days later, cells were collected and stained with anti-human CD3 and CD19 Abs for flow cytometry analysis.

CAR-CD3ζ phosphorylation = experiment: Western blot of CAR-CD3ζ and proximal signaling phosphorylation; type: cell-based, human
Description: For western blot assays, protein lysate was normalized according to the amount of CAR expression and resolved on 4%-15% SDS polyacrylamide gel electrophoresis gels (SDS-PAGE, Bio-Rad). After protein transfer onto Polyvinylidene fluoride membranes (Bio-Rad), membranes were blocked in 5% non-fat milk in TBS-T and incubated with primary and secondary Abs in TBS-T with 1% milk. The following Abs were used: anti-CD3pY83 and anti-CD3pY142 (Abcam), anti-ZAP70pY319, anti-ZAP70, anti-LATpY191, anti-LAT, anti-LCK, anti-THEMIS, anti-SHP1 and anti-HA tag (Cell Signaling Technology), anti-CD3ζ, anti-FKBP, anti-β-actin (Santa Cruz), anti-FLAG (M2) (Sigma) and horseradish peroxidase conjugated secondary Abs (Goat-anti-mouse, Goat-anti-Rabbit from Thermo Scientific). Membranes were developed with SuperSignal West Femto Maximum Sensitivity Substrate (Thermo Scientific) on a Gel station (Bio-Rad).

Daudi-FFLuc cells = experiment: NSG xenograft lymphoma model of SHP1 heterodimerization; type: in vivo, NSG mice
Description: Animal studies were performed in accordance with the Institutional Animal Care and Use Committee of UNC. For long-term in vivo cytotoxicity, male or female NSG (NOD-scid IL2Rg^null) mice were injected intravenously (i.v.) with 2×10^6 CD19^+ Daudi tumor cell line labeled with the Firefly luciferase gene (Daudi-FFLuc). Four to seven days later, mice received T cells control or expressing CARs intravenously (i.v.). For tumor re-challenging experiments, 2×10^6 CD19^+ Daudi-FFLuc cells were i.v. injected at indicated time point. Tumor growth was monitored every 2-3 days by injecting mice intraperitoneally (i.p.) with D-luciferin (150 mg/kg, Xenolight, PerkinElmer). Photon emission was analyzed using the Xenogen-IVIS Imaging System. For short-term in vivo T cell activation, NSG mice were injected with Daudi-FFLuc cells i.v. Two weeks later, CAR19.28ζ-Ts were labeled with Cell-trace Violet (Thermo Scientific) and CAR19.BBζ-Ts were labeled with CFSE (Thermo Scientific) as per manufacturer's instructions. Cells were mixed 1:1, and a total 1×10^7 cells were i.v. injected in each mouse. Peripheral blood, bone marrow, lung and spleen were harvested 6 hours after T cell injection, dissociated into single cells and stained with anti-human CD45-PE, CD3-APC and CD69-PE-Cy7 Abs. […] Tumor growth was monitored twice a week.

[2] = Humanized mouse CRS model of SHP1 heterodimerization; type: in vivo, humanized NSG mice
Source text: For the humanized mouse model to evaluate the effects of SHP1 heterodimerization in CAR-T cells in vivo, humanized NSG (NOD-scid IL2Rg^null) mice (NSG-hu HSC) were generated. Briefly, human fetal liver tissues were obtained from elective or medically indicated termination of pregnancy through a non-profit intermediary working with outpatient clinics (Advanced Bioscience Resources). CD34^+ hematopoietic stem cells (HSC) were transplanted in newborn NSG mice through intra-liver injection of 2×10^5 purified HSC. Human immune cell engraftment was detected by flow cytometry 12 weeks after transplantation. Standard parameters of evaluation of CRS in humanized NSG mice was performed. Mice were infused with 5×10^6 CAR-T cells at day 0, and plasma was collected at days 1 and 2. AP21967 was administrated intraperitoneally at 10 mg/kg dose. Weight of each mouse was normalized to starting weight before CAR-T cell infusion. In a second CRS murine model, 7-10-week-old female C.B-Igh-1b/GbmsTac-Prkdc^scid-Lyst^bgN7 (SCID-beige, Taconic Biosciences) mice were injected i.p. with Raji-FFluc cells. After 21 days, mice were grouped based on the BLI (total flux). Mice were infused i.p. with 30×10^6 CAR-T cells. Weight of each mouse was normalized to starting weight before CAR-T cell infusion.

[3] = test system: CD69 expression and cytokine release of CAR-T cells; experiment: Activation of CAR-T cells with anti-CAR19 anti-idiotype Ab (CD69 expression, cytokine release); type: cell-based, human
Description: as §1, §2

[4] = test system: Ca2+ influx in CAR-T cells; experiment: Ca2+ influx assay after anti-CAR19 Ab stimulation; type: cell-based, human; details: stimulated with α-CAR19 antibody; FIG. 6
Description: For Ca^2+ influx assays, T cells were incubated with Ca^2+ indicator as per manufacturer's instructions (Ca^2+ influx assay, BD Bioscience). Cells were incubated with anti-CAR19 Ab followed by goat anti-mouse secondary Ab on ice. Ca^2+ current was measured by flow cytometry for time-lapsed fluorescence change. Cells were first collected on ice as the baseline of the Ca^2+ current, and then activated at 37° C. for the Ca^2+ current during T cell activation.

[5] = transient AP21967, FIGS. 21B-21C

CO[C@H]1[C@@H](O)[C@H](C)C[C@H](C)/C=C/C=C/C=C(\C)[C@@H](c2c[nH]c3c(C)cccc23)C[C@@H]2CC[C@@H](C)[C@@](O)(O2)C(=O)C(=O)N2CCCC[C@H]2C(=O)O[C@H]([C@H](C)C[C@@H]2CC[C@@H](O)[C@H](OC)C2)C[C@H](O)[C@H](C)/C=C(\C)[C@H]1O [AP21967]
Antitumor activity in vitro ([1]; CAR19.28ζ-T cells with FKBP-SHP1, BV173 co-culture): without compromising their antitumor activity in vitro | IFNγ release / production ([1]; CAR19.28ζ.FRB-T cells with FKBP-SHP1 and BV173 at 1:5 ratio, FIGS. 17 and 18): reduces IFNγ release by CAR19.28ζ-T cells in a reversible manner; also recorded: reversible regulation of IFNγ production | Cytotoxicity ([1]; FKBP-SHP1 co-expressed, FIG. 17): controlled cytotoxicity | CAR-CD3ζ phosphorylation upon antigen binding (CAR-CD3ζ phosphorylation; CAR19.28ζ.FRB-T cells co-transduced with FKBP-SHP1, 1 μM AP21967, FIG. 16): tunes down CAR-CD3ζ phosphorylation upon antigen binding | Antigen-independent CAR-CD3ζ phosphorylation of CAR19.28ζ-Ts (CAR-CD3ζ phosphorylation; FKBP-SHP1 co-expressed, FIG. 16): reduce antigen-independent CAR-CD3ζ phosphorylation | IFNγ release in vivo (plasma) (Daudi-FFLuc cells; AP21967 twice on day 2, 10 mg/kg intraperitoneally, FIG. 20A): reduced IFNγ release by CAR19.28ζ-T cells co-expressing SHP1 | Antitumor effects in vivo (Daudi-FFLuc cells; AP21967 twice on day 2, tumor growth days 7-39, FIG. 20B): without impairing their antitumor effects | Weight loss ([2]; AP21967 twice on day 1, 10 mg/kg intraperitoneally, FIG. 21A): alleviated their weight loss | Therapeutic effect of CAR19.28ζ-T cells in vivo ([2]; cell counts on day 21, FIG. 21D): did not impair the therapeutic effect | Release in the plasma of human GM-CSF [2, 5]: significantly reduced | Release in the plasma of human IFNγ [2, 5]: significantly reduced | Release in the plasma of human IL-6 [2, 5]: significantly reduced | Release in the plasma of human TNFα [2, 5]: significantly reduced

[Na+].[Na+].[Na+].[O]=[V]([O-])([O-])[O-] [Na3 VO4]
Antigen-independent phosphorylation of CAR-CD3ζ in CAR19.BBζ-T cells (CAR-CD3ζ phosphorylation; 200 μM phosphatase inhibitor, FIG. 2E): promoted

CC(C)(C)n1nc(-c2ccc(Cl)cc2)c2c(N)ncnc21 [PP2]
CAR-CD3ζ basal phosphorylation of CAR19.28ζ-T cells on addition of kinase inhibitor (CAR-CD3ζ phosphorylation; inhibitor at 10 μM for 16 hours, FIG. 2A): abrogated | Responsiveness of CAR19.28ζ-T cells to CAR crosslinking (CD69, IFNγ and IL-2) after PP2 pretreatment ([3]; 10 μM PP2 for 16 hours, low doses of anti-CAR19 antibody, FIG. 2B): reduced their responsiveness to CAR crosslinking with low doses of anti-CAR19 antibody to similar levels of CAR19.BBζ-T cells | PP2-mediated inhibition in CAR19.28ζ-T cells at high doses of anti-CAR19 antibody ([3]; 10 μM PP2 pretreatment, high doses of anti-CAR19 antibody): partially overcame

CD8α-wt: wild type CD8α
Basal CAR-CD3ζ phosphorylation in CD4+ T cells co-expressing CAR.19.BK (CAR-CD3ζ phosphorylation; co-expression of CD8α construct, FIG. 2D top): increased

LCK: full-length human LCK, FLAG-tagged, overexpressed in CAR-T cells
CAR-CD3ζ phosphorylation in CAR19.28ζ-Ts with LCK overexpression (CAR-CD3ζ phosphorylation; FIG. 5): enhanced | Basal CAR-CD3ζ phosphorylation in CAR19.BBζ-T cells with LCK overexpression (CAR-CD3ζ phosphorylation; day 10 of in vitro expansion, three donors, FIG. 5): increasing; also recorded: dramatically increased CAR-CD3ζ phosphorylation of CAR19.BBζ to a comparable level as CAR19.28ζ | Ca2+ influx with LCK overexpression [4]: increasing; also recorded: correspondingly increased
